Measured values from patent US20070093969A1, “Molecular nephrotoxicology modeling” (priority 2002, published 2007).
Blank lines part the entries; values can stand above or below the molecule they belong to.

Assays:
patients [1] = settings: human, in vivo; cited from earlier work
kidney = settings: rat; cited from earlier work
rats [2] = settings: rat, in vivo; cited from earlier work
[3] = system: glomerular epithelial cell; settings: rat, in vivo; cited from earlier work
rats [4] = settings: rat, in vivo; cited from earlier work; remark: listed apart in the source
rats [5] = settings: rat, in vivo; cited from earlier work; remark: listed apart in the source
rabbits [6] = settings: rabbit, in vivo; cited from earlier work
[7] = system: angiotensin converting enzyme (ACE); settings: 20, 25, and 30 days post-treatment; cited from earlier work
mice = settings: single dose; cited from earlier work
renal cortex = settings: cited from earlier work
[8] = system: mitochondrial respiration; settings: cited from earlier work
rats [9] = settings: rat, in vivo; cited from earlier work; remark: listed apart in the source
proximal renal tubule = settings: rat, in vivo; cited from earlier work
rats [10] = settings: rat, in vivo; cited from earlier work; remark: listed apart in the source
rabbits [11] = settings: rabbit, in vivo; cited from earlier work; remark: listed apart in the source
rabbits [12] = settings: rabbit, in vivo; cited from earlier work; remark: listed apart in the source
kidney tissue = settings: in vivo; cited from earlier work
[13] = system: kidney tissue gene expression; settings: rat, in vivo
[14] = Clinical pathology (clinical chemistry) of dosed rats; format: in vivo, male Sprague-Dawley rats; settings: rats given the high dosage of diflunisal
Protocol: In both the ibuprofen and the diflunisal group, two patients complained of abdominal cramping.
1. Frequency—Prior to necropsy.
2. Number of animals—All surviving animals.
3. Bleeding Procedure—Blood was obtained by puncture of the orbital sinus while under 70% CO2/30% O2 anesthesia.
Collection of Blood Samples—Approximately 0.5 mL of blood was collected into EDTA tubes for evaluation of hematology parameters. Approximately 1 mL of blood was collected into serum separator tubes for clinical chemistry analysis. Approximately 200 uL of plasma was obtained and frozen at […] for test compound/metabolite estimation. An additional ˜2 mL of blood was collected into a 15 mL conical polypropylene vial to which ˜3 mL of Trizol was immediately added. The contents were immediately mixed with a vortex and by repeated inversion. The tubes were frozen in liquid nitrogen and stored at […]

rat hepatocytes = settings: cited from earlier work
mouse [15] = settings: in vivo; cited from earlier work
patients [16] = settings: human, in vivo; cited from earlier work; remark: listed apart in the source
rats [17] = settings: rat, in vivo; cited from earlier work; remark: listed apart in the source
mouse [18] = settings: in vivo; cited from earlier work; remark: listed apart in the source
human population = settings: in vivo; cited from earlier work
rats [19] = settings: rat, in vivo; cited from earlier work; remark: listed apart in the source
patients [20] = settings: 90 mg per month; cited from earlier work
rats and mice = settings: in vivo; cited from earlier work
rats [21] = settings: rat, in vivo; cited from earlier work; remark: listed apart in the source
patients [22] = settings: four HIV-positive patients; cited from earlier work
rats [23] = settings: rat, in vivo; cited from earlier work; remark: listed apart in the source
rats [24] = settings: rat, in vivo; cited from earlier work; remark: listed apart in the source
[25] = in vivo; cited from earlier work

Molecule: CC(C)(Oc1ccc(C2CC2(Cl)Cl)cc1)C(=O)O (centres unmarked) [Ciprofibrate]
- plasma creatinine and urea levels (patients [1]): elevated

Molecule: O=C(O)c1cc(/N=N/c2ccc(O)c(C(=O)O)c2)ccc1O [Olsalazine]
- kidney findings (kidney): interstitial nephritis and tubular necrosis

Molecule: CN(C)c1ncnc2c1ncn2[C@@H]1O[C@H](CO)[C@@H](N)[C@H]1O [PAN, Puromycin aminonucleoside]
- serum albumin concentration (rats [2]): negatively affected
- serum non-esterified fatty acids (rats [2]): increase
- glomerular epithelial cell apoptosis [3]: induced
- urine protein and renal damage (rats [4]): proteinuria

Molecule: CC1CCC(NC(=O)N(CCCl)N=O)CC1 (centres unmarked) [Semustine]
- renal injury (rats [5]): proximal tubule injury and papillary necrosis

Molecule: COc1cccc2c1C(=O)c1c(O)c3c(c(O)c1C2=O)C[C@@](O)(C(=O)CO)C[C@@H]3O[C@H]1C[C@H](N)[C@H](O)[C@H](C)O1 [adriamycin, Adriamycin]
- nephrotoxicity (rabbits [6]): signs of nephrotoxicity at relatively low doses
- serum ACE levels [7]: significantly elevated
- renal signs (mice): combined glomerular albuminuria and immunoglublinuria

Molecule: O=C(Cc1cccs1)N[C@@H]1C(=O)N2C(C(=O)[O-])=C(C[n+]3ccccc3)CS[C@H]12 [cephaloridine, Cephaloridine]
- glutathione reductase (renal cortex): inhibited
- reduced glutathione (GSH) in the renal cortex (renal cortex): depleted
- mitochondrial respiration and uptake of anionic succinate [8]: reduce

Molecule: N.N.[Cl][Pt][Cl] [cisplatin, Cisplatin (Pt (NH3)2(Cl)2)]
- serum creatinine levels (rats [9]): elevations
- renal injury (proximal renal tubule): induced renal injury
- food intake (rats [10]): decreased
- urine osmolality (rats [10]): decreased
- urine volume (rats [10]): increase

Molecule: CC1=C2C(=CO[C@H](C)[C@H]2C)C(O)=C(C(=O)O)C1=O [citrinin, Citrinin]
- renal ultrastructure (rabbits [11]): renal alterations
- blood urea nitrogen and serum-creatinine levels (rabbits [12]): increased
- clinical findings (rabbits [12]): azotaemia and metabolic acidosis
- creatinine clearance (rabbits [12]): decreased

Molecule: O=C(O)Cc1ccccc1Nc1c(Cl)cccc1Cl [diclofenac, Diclofenac]
- levels of BUN, malondialdehyde (MDA), SOD, and activated Ca2+-Mg2+-endonuclease (kidney tissue): elevated
- Tox Group Mean, GLGC Identifier 67 [13]: 1551.30
- Tox Group Mean, GLGC Identifier 665 [13]: 849.30
- Tox Group Mean, GLGC Identifier 725 [13]: 33.60
- Tox Group Mean, GLGC Identifier 1422 [13]: 174.39
- Tox Group Mean, GLGC Identifier 1527 [13]: 51.23
- Tox Group Mean, GLGC Identifier 1529 [13]: 194.31
- Tox Group Mean, GLGC Identifier 1698 [13]: 190.91
- Tox Group Mean, GLGC Identifier 1729 [13]: 81.89
- Tox Group Mean, GLGC Identifier 1847 [13]: 22.26
- Tox Group Mean, GLGC Identifier 1858 [13]: 253.42
- Tox Group Mean, GLGC Identifier 1888 [13]: 101.45
- Tox Group Mean, GLGC Identifier 1894 [13]: 294.35
- Tox Group Mean, GLGC Identifier 2128 [13]: 97.35
- Tox Group Mean, GLGC Identifier 3172 [13]: 36.28
- Tox Group Mean, GLGC Identifier 3439 [13]: 135.79
- Tox Group Mean, GLGC Identifier 3465 [13]: 152.39
- Tox Group Mean, GLGC Identifier 4449 [13]: 156.15
- Tox Group Mean, GLGC Identifier 4661 [13]: 555.94
- Tox Group Mean, GLGC Identifier 5461 [13]: 694.84
- Tox Group Mean, GLGC Identifier 5920 [13]: 1412.80
- Tox Group Mean, GLGC Identifier 5930 [13]: 73.85
- Tox Group Mean, GLGC Identifier 6014 [13]: 183.73
- Tox Group Mean, GLGC Identifier 6046 [13]: 83.37
- Tox Group Mean, GLGC Identifier 6278 [13]: 58.48
- Tox Group Mean, GLGC Identifier 6758 [13]: 59.84
- Tox Group Mean, GLGC Identifier 6782 [13]: 310.65
- Tox Group Mean, GLGC Identifier 6796 [13]: 304.75
- Tox Group Mean, GLGC Identifier 6917 [13]: 111.53
- Tox Group Mean, GLGC Identifier 7299 [13]: 595.57
- Tox Group Mean, GLGC Identifier 7540 [13]: 504.78
- Tox Group Mean, GLGC Identifier 7872 [13]: 63.92
- Tox Group Mean, GLGC Identifier 7936 [13]: 82.66
- Tox Group Mean, GLGC Identifier 7937 [13]: 34.46
- Tox Group Mean, GLGC Identifier 8065 [13]: 236.57
- Tox Group Mean, GLGC Identifier 8099 [13]: 72.23
- Tox Group Mean, GLGC Identifier 8104 [13]: 85.37
- Tox Group Mean, GLGC Identifier 8234 [13]: 22.24
- Tox Group Mean, GLGC Identifier 8759 [13]: 237.31
- Tox Group Mean, GLGC Identifier 8820 [13]: 743.55
- Tox Group Mean, GLGC Identifier 8850 [13]: 175.34
- Tox Group Mean, GLGC Identifier 8888 [13]: 22.26
- Tox Group Mean, GLGC Identifier 9079 [13]: 1099.28
- Tox Group Mean, GLGC Identifier 9520 [13]: 69.60
- Tox Group Mean, GLGC Identifier 10434 [13]: 77.07
- Tox Group Mean, GLGC Identifier 11434 [13]: 181.39
- Tox Group Mean, GLGC Identifier 11755 [13]: 343.83
- Tox Group Mean, GLGC Identifier 12979 [13]: 742.50
- Tox Group Mean, GLGC Identifier 13013 [13]: 32.49
- Tox Group Mean, GLGC Identifier 13485 [13]: 38.32
- Tox Group Mean, GLGC Identifier 13542 [13]: 321.75
- Tox Group Mean, GLGC Identifier 13614 [13]: 497.29
- Tox Group Mean, GLGC Identifier 13966 [13]: 227.19
- Tox Group Mean, GLGC Identifier 14003 [13]: 1575.92
- Tox Group Mean, GLGC Identifier 14346 [13]: 174.62
- Tox Group Mean, GLGC Identifier 14450 [13]: 45.80
- Tox Group Mean, GLGC Identifier 15017 [13]: 2241.27
- Tox Group Mean, GLGC Identifier 15035 [13]: 23.84
- Tox Group Mean, GLGC Identifier 15124 [13]: 1897.22
- Tox Group Mean, GLGC Identifier 15125 [13]: 3102.06
- Tox Group Mean, GLGC Identifier 15379 [13]: 33.32
- Tox Group Mean, GLGC Identifier 15411 [13]: 552.53
- Tox Group Mean, GLGC Identifier 15679 [13]: 309.12
- Tox Group Mean, GLGC Identifier 15761 [13]: 22.22
- Tox Group Mean, GLGC Identifier 15964 [13]: 487.88
- Tox Group Mean, GLGC Identifier 16520 [13]: 174.46
- Tox Group Mean, GLGC Identifier 16521 [13]: 453.74
- Tox Group Mean, GLGC Identifier 16681 [13]: 134.46
- Tox Group Mean, GLGC Identifier 16982 [13]: 1036.49
- Tox Group Mean, GLGC Identifier 17541 [13]: 1839.84
- Tox Group Mean, GLGC Identifier 18246 [13]: 100.99
- Tox Group Mean, GLGC Identifier 19067 [13]: 76.83
- Tox Group Mean, GLGC Identifier 20000 [13]: 24.08
- Tox Group Mean, GLGC Identifier 20457 [13]: 235.87
- Tox Group Mean, GLGC Identifier 20523 [13]: 1004.68
- Tox Group Mean, GLGC Identifier 20864 [13]: 3112.64
- Tox Group Mean, GLGC Identifier 21012 [13]: 445.05
- Tox Group Mean, GLGC Identifier 21014 [13]: 352.43
- Tox Group Mean, GLGC Identifier 21145 [13]: 76.23
- Tox Group Mean, GLGC Identifier 21354 [13]: 640.85
- Tox Group Mean, GLGC Identifier 21491 [13]: 67.51
- Tox Group Mean, GLGC Identifier 22311 [13]: 1255.02
- Tox Group Mean, GLGC Identifier 22321 [13]: 138.89
- Tox Group Mean, GLGC Identifier 23987 [13]: 596.80
- Tox Group Mean, GLGC Identifier 24232 [13]: 48.69
- Tox Group Mean, GLGC Identifier 24566 [13]: 32.95
- Tox Group Mean, GLGC Identifier 24568 [13]: 78.30
- Tox Group Mean, GLGC Identifier 24893 [13]: 20.58
- Tox Group Mean, GLGC Identifier 25106 [13]: 28.05
- Tox Group Mean, GLGC Identifier 26083 [13]: 403.60

- concentrations of creatinine [14]: increased
Molecule: O=C(O)c1cc(-c2ccc(F)cc2F)ccc1O [diflunisal, Diflunisal]
- LDH leakage (rat hepatocytes; 500 μM, compared to the control sample): increase
- intracellular ATP concentrations (rat hepatocytes): decreased

Molecule: O=P1(NCCCl)OCCCN1CCCl (centres unmarked) [ifosfamide, Ifosfamide]
- patients who developed nephrotoxicity (patients [16]): seven
- body weight and hematocrit versus control rats (rats [17]): significantly lower
- clearance rate of creatinine (mouse [18]): decreased
- serum creatinine and urea levels (mouse [18]): elevated

Molecule: [Li] [lithium, Lithium]
- patients who proceeded to end-stage renal disease (human population): seven
- patients with nephrogenic diabetes insipidus (NDI) (human population): ~90%
- patients with nephrotic proteinuria (human population): Approximately one fourth
- urine output (rats [19]): marked polyuria

Molecule: NCCC(O)(P(=O)(O)O)P(=O)(O)O [pamidronate, Pamidronate]
- renal toxicity at the recommended dose (patients [20]): rare
- body weight (rats and mice): significant weight loss
- creatinine clearance (rats and mice): decrease

Molecule: N=C(N)c1ccc(OCCCCCOc2ccc(C(=N)N)cc2)cc1 [pentamidine, Pentamidine]
- tubular toxicity (rats [21]): dose-related and reversible

Molecule: Nc1ccc(S(=O)(=O)Nc2ncccn2)cc1 [sulfadiazine, Sulfadiazine]
- patients who developed oliguria, abdominal pain, renal failure (patients [22]): All four

Molecule: CC(=N)S [thioacetamide, Thioacetamide]
- serum total bilirubin, aspartate aminotransferase, alanine aminotransferase, BUN, creatinine and TNFα (rats [23]): elevated

Molecule: Carboplatin
- renal damage compared with cisplatin (proximal renal tubule): less damage than cisplatin
- renal injury (proximal renal tubule): induced renal injury
- CGT excretion (rats [24]): increased approximately two-fold

Molecule: gentamicin
- gamma-glutamyl transpeptidase activity in urine [25]: increase
